Reference: patent US9834544B2, “Sweet flavor modifier” (SENOMYX, INC., priority 2011, dated 2017)
Values belong to the molecule of their own block, whether it stands above or below them.

How the values were obtained:
[1] = system: Human Panelists; test: Sweet flavor enhancement, human panelists, scaling test; type: in vivo; conditions: 0 to 15 scale, n = 30
Description: Test samples containing experimental compounds were compared to a dose-response curve for perceived sweetness intensity of sweeteners (sucralose, sucrose, fructose and other sweeteners) concentrations to determine equivalent sweetness intensity.
A group of eight or more panelists tasted solutions including sweeteners at various concentrations, as well as the experimental compound both with and without added sweetener. Panelists then rated sweetness intensity of all samples on a structured horizontal line scale, anchored from 0 to 15, where 0 equals no sweetness and 15 equals equivalent sweetness to a 15% sucrose sample. Scores for sweetness intensity were averaged across panelists. Then using the average scores and/or equation of the line for the sweetener dose-response curve, equivalent sweetness concentrations were determined for the samples containing experimental compounds.
Subjects had been previously familiarized with the key attribute taste and were trained to use the 0 to 15 point line scale. Subjects refrained from eating or drinking (except water) for at least 1 hour prior to the test. Subjects ate a cracker and rinsed with water several times to clean the mouth.
Sweetener solutions are provided at a wide range of concentrations such as 100 ppm, 200 ppm, 300 ppm, 400 ppm, and 500 ppm for sucralose, or between 0% and 12% for sucrose or fructose, in order to create a dose-response curve. Samples containing experimental compound were prepared both alone and in a 100 ppm sucralose solution or a 6% sucrose or fructose solution. All samples were made up in low sodium buffer pH 7.1. In order to aid dispersion, solutions can be made up in 0.1% ethanol.
The solutions were dispensed in 20 ml volumes into 1 oz. sample cups and served to the subjects at room temperature. All samples were presented in randomized counterbalanced order to reduce response bias. Further, two sessions of testing may be used to check panel precision.
Subjects tasted each sample individually and rate sweetness intensity on the line scale prior to tasting the next sample. All samples were expectorated. Subjects may retaste the samples but can only use the volume of sample given. Subjects must rinse with water between samples. Eating an unsalted cracker between samples may be required depending on the samples tasted.
The scores for each sample were averaged across subjects and standard error was calculated. The dose-response curve was plotted graphically, and this may be used to ensure the panel is rating accurately; i.e., increasing the concentration of sucralose should correspond to increased average scores for sweetness. […]

[2] = system: Human Panelists; test: Paired comparison test with Compound D5 in product prototype (drinks); type: in vivo
Description: (§1) Test samples containing experimental compounds are presented in pairs to the panelist and they are asked to determine which of the sample is sweeter. A group of 10-16 or more panelists participated in each test. Subjects refrained from eating or drinking (except water) for at least 1 hour prior to the test. Subjects rinsed with water several times to clean the mouth.
(§2) In one paired comparison test, the panelist is presented with two different samples and asked to identify the sample which is sweeter. The samples within a paired comparison test are presented in a randomized, counterbalanced order. Panelists have up to a 1 minute delay between taste tests to clear the mouth of any tastes.
(§3) Binomial probability tables are used to determine the probability of the correct number of responses occurring for each test at alpha=0.05
Human panelists evaluated various drinks (e.g., tea, coffee, Kool-Aid) in paired comparison taste test procedure.

[3] = system: Human Panelists; test: Sweet flavor enhancement, human panelists, paired comparison test; type: in vivo
Description: as §1
All samples are prepared with ethanol to ensure dispersion of the compound in solution. This includes samples without compound; all solutions are balanced for 0.1% ethanol.
Samples are also prepared with low sodium buffer (pH 7.1) in place of water. Buffer contains 0.952 g of KCl, 5.444 g of Na2HPO4, and 0.952 g of KH2PO4 in 40 L of DIUF water. Sample volumes are usually 20 ml.
as §2, §3

[4] = biological target: T1, hT1R2/R3 (Homo sapiens, UniProt Q7RTX0+Q8TE23); test: Screening for sweet enhancers: FLIPR calcium assay in hT1R2/R3-mammalian Gal5 cells, leftward shift of sweetener EC50; type: cell-based; conditions: for EC50 Ratio, Sucralose Enhancement / EC50 Ratio, Sucrose Enhancement: compound at 10 μM; for EC50 Ratio, Sucralose Enhancement: sweetener sucralose; for EC50 Ratio, Sucrose Enhancement: sweetener sucrose
T1 construct: expressed in transfected cells; host or cells: 'hT1R2/R3-mammalian Gal5 cells'
T1 sequence (Q8TE23 20-839): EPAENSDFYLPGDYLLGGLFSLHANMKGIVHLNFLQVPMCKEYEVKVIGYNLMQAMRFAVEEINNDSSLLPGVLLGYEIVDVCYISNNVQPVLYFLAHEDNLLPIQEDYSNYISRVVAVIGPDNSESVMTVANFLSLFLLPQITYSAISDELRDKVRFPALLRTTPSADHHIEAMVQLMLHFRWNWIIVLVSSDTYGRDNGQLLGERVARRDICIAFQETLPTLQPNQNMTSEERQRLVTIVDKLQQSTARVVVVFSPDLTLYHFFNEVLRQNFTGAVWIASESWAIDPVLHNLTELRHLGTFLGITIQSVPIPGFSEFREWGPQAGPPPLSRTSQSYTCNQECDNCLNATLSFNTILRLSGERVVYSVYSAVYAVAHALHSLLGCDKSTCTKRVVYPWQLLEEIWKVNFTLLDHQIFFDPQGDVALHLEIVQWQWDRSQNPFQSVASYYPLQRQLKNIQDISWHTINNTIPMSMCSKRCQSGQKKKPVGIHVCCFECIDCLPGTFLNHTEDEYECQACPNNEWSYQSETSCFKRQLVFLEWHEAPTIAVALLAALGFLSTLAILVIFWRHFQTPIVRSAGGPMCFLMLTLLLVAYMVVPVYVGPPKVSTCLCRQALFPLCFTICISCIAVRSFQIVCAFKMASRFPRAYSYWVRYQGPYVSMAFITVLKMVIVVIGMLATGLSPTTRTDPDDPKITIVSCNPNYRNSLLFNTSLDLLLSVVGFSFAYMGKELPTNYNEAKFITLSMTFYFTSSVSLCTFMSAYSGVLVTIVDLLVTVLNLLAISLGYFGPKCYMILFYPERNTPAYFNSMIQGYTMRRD
T1 sequence (Q7RTX0 21-852): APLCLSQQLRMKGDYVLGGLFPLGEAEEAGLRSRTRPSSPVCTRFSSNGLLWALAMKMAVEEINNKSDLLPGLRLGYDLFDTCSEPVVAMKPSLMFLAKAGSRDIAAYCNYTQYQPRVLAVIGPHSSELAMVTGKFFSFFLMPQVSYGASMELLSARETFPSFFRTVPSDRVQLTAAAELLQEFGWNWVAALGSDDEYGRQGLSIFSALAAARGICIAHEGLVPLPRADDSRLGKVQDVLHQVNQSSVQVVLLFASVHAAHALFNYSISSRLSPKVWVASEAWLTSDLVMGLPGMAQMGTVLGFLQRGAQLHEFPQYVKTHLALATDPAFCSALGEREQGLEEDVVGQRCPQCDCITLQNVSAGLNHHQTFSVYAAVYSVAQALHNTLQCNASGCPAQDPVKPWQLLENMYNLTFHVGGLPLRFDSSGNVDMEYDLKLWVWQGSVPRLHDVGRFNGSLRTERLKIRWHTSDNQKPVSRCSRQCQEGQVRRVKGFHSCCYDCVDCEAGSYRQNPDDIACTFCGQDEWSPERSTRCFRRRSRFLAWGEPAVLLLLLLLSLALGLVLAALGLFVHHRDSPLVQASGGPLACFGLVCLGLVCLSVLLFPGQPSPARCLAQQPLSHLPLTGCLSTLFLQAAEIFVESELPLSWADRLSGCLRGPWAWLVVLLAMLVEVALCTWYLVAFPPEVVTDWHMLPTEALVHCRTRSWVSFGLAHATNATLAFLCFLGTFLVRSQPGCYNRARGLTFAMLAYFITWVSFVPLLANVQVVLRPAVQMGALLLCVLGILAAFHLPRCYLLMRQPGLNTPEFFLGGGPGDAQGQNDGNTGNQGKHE
Description: hT1R2/R3-mammalian Gal5 cells were seeded in 384-well-clear bottom plates (Fisher) at a density of ˜32,000 cells/well and grown overnight. On the day of the experiment, hT1R2/R3-mammalian Gal5 were loaded with the calcium indicator Fluo3AM ([…]) (Invitrogen, Carlsbad, Calif.) in D-PBS (Invitrogen, Carlsbad, Calif.) using a Multidrop. Cells were incubated for 1 hour at room temperature and excess dye was washed out with D-PBS using an EMBLA cell washer (Molecular Devices, Sunnyvale, Calif.), leaving a residual volume of […]. Sweeteners and test compounds were prepared at 4× final concentration and mixed 1:1 in a 384-well Greiner plate (bringing the sweeteners and test compounds concentrations down to 2× final concentration). After 30 minutes of rest time at room temperature, Fluo3AM-loaded cell plates, and the sweetener/compound plate mixture were loaded into a Fluorometric Imaging Plate Reader (FLIPR) (Molecular Devices, Sunnyvale, Calif.). Imaging was performed using a 480 nm excitation and a 535 emission and was initiated with the acquisition of the baseline fluorescence for a period of 7 seconds. Then, the cells were stimulated on line with addition of […] stimuli/well. Subsequent images were acquired every other second for a period of 2 minutes. Raw fluorescence counts were then normalized in each well (using custom made data import software) by calculating delta F/f values (maximum fluorescent count obtained after stimulation−minimal fluorescent count obtained before stimulation/minimal fluorescent count obtained before stimulation). EC50s were determined using a non-linear regression algorithm (GraphPad PRISM, San Diego, Calif.), where the Hill slope, bottom asymptotes and top asymptotes were allow to vary. Enhancement properties of test compounds were quantified by determining the magnitude of the leftward shift in the sweeteners EC50 values (or an EC50 ratio): the value of the EC50 measured in the absence of the enhancer divided by the value of the EC50 measured in the presence of the enhancer).
The present compounds have been tested and shown sweet taste enhancing activities for sucrose, sucralose, and/or fructose as shown in Table E (EC50 ratio for sucrose at about 10 μM), Table F (EC50 ratio for sucralose at about 10 μM), and Table H (EC50 ratio for fructose at about 50 µM). […] The compounds listed in Tables E, F and H are Examples described above. For example, Compound C6 listed in Tables E and F is Example 18 described above.

SMILES: OC[C@H]1O[C@@](CO)(O[C@H]2O[C@H](CO)[C@@H](O)[C@H](O)[C@H]2O)[C@@H](O)[C@@H]1O [Sucrose]
- Average Sweetness ([1]; 6% Sucrose): 6.6
- Average Sweetness ([1]; 8% Sucrose): 8.1
- Average Sweetness ([1]; 10% Sucrose): 9.8
- Average Sweetness ([1]; 12% Sucrose): 11.0
- Sample selected as sweeter by panelists, Total ([2]; 8% Sucrose Brewed Neutral Black Tea vs 4% Sucrose Brewed Neutral Black Tea + 30.6 μM Compound D5, n = 39): 22
- Sample selected as sweeter by panelists, Total ([2]; 8% Sucrose Coffee Drink vs 4% Sucrose Coffee Drink + 23.65 μM Compound D5, n = 39): 20
- Sample selected as sweeter by panelists, Total ([2]; 10% Sucrose Cherry Kool-Aid vs 5% Sucrose Cherry Kool-Aid + 41.7 μM Compound D5, n = 33): 18
- Sample selected as sweeter by panelists, Total ([2]; 10% Sucrose Lemonade Kool-Aid vs 5% Sucrose Lemonade Kool-Aid + 41.7 μM Compound D5, n = 48): 27
- Sample selected as sweeter by panelists, Total ([3]; 1% Sucrose vs LSB + 27.8 μM Compound D5, n = 45): 43
- Sample selected as sweeter by panelists, Total ([3]; 1% Sucrose vs LSB + 27.8 μM Compound Y5, n = 45): 44
- Sample selected as sweeter by panelists, Total ([3]; 1% Sucrose vs LSB + 111.3 μM Compound D5, n = 29): 21
- Sample selected as sweeter by panelists, Total ([3]; 10% Sucrose vs 6% Sucrose + 24.9 μM Compound E5, n = 39): 13
- Sample selected as sweeter by panelists, Total ([3]; 10% Sucrose vs 6% Sucrose + 26.8 μM Compound L6, n = 45): 14
- Sample selected as sweeter by panelists, Total ([3]; 10% Sucrose vs 6% Sucrose + 26.9 μM Compound A6, n = 45): 9
- Sample selected as sweeter by panelists, Total ([3]; 10% Sucrose vs 6% Sucrose + 26.9 μM Compound Q5, n = 48): 13
- Sample selected as sweeter by panelists, Total ([3]; 10% Sucrose vs 6% Sucrose + 26.9 μM Compound R5, n = 42): 16
- Sample selected as sweeter by panelists, Total ([3]; 10% Sucrose vs 6% Sucrose + 27.8 μM Compound D5, n = 45): 13
- Sample selected as sweeter by panelists, Total ([3]; 10% Sucrose vs 6% Sucrose + 27.8 μM Compound Y5, n = 11 (11 panelists × 2 reps)): 8
- Sample selected as sweeter by panelists, Total ([3]; 10% Sucrose vs 6% Sucrose + 27.9 μM Compound K5, n = 45): 11
- Sample selected as sweeter by panelists, Total ([3]; 10% Sucrose vs 6% Sucrose + 28.9 μM Compound E6, n = 39): 18

- EC50 Ratio, Sucralose Enhancement [4]: 4.3
- EC50 Ratio, Sucrose Enhancement [4]: 6.0
- EC50 Ratio, Fructose Enhancement ([4]; compound at 50 μM, sweetener fructose): 2.6
SMILES: Cc1nc2cccc(OCC(C)(C)NC(=O)CC(C)C)c2c(N)c1C(=O)O [Compound O5]

- EC50 Ratio, Sucralose Enhancement [4]: 3.8
- EC50 Ratio, Sucrose Enhancement [4]: 11.0
- melting point: 176 to 179 °C
SMILES: Cc1nc2cccc(OCC(C)(C)C(=O)NCC(C)C)c2c(N)c1C(=O)O [Compound C6, 4-amino-5-(3-(isobutylamino)-2,2-dimethyl-3-oxopropoxy)-2-methylquino-line-3-carboxylic acid]

- melting point: 168 to 170 °C
SMILES: CCNC(=O)C(C)(C)COc1cccc2nc(C)c(C(=O)O)c(N)c12 [Example 12, 4-amino-5-(3-(ethylamino)-2,2-dimethyl-3-oxopropoxy)-2-methylquinoline-3-carboxylic acid]

- melting point: 170 to 172 °C
SMILES: Cc1nc2cccc(OCC(C)(C)C(=O)NCC3CCC3)c2c(N)c1C(=O)O [Example 19, 4-amino-5-(3-((cyclobutylmethyl)amino)-2,2-dimethyl-3-oxopropoxy)-2-methylquinoline-3-carboxylic acid]

- melting point: 195 to 199 °C
SMILES: CCCCNC(=O)C(C)(C)COc1cccc2nc(C)c(C(=O)O)c(N)c12 [Example 15, 4-amino-5-(3-(butylamino)-2,2-dimethyl-3-oxopropoxy)-2-methylquinoline-3-carboxylic acid]
